According to US20260053932A1, “COMPOUNDS AND METHODS FOR THE TARGETED DEGRADATION OF ANDROGEN RECEPTOR AND ASSOCIATED METHODS OF USE” (Arvinas Operations, Inc., priority 2020, published 2026):

System: androgen receptor (AR) in LNCaP and/or VCaP cells
Experiment: Androgen Receptor ELISA assay (AR degradation)
Assay type: cell-based
Conditions: LNCaP and/or VCaP cells; 5 hours incubation; media with R1881; read-out: DC50 Code* (degradation of AR ELISA)
Summary of the method: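 VCaP cells grown ≥3 days, then treated 5 h with compound in media containing 1 nM R1881 (10× stock). Cells lysed and AR quantified by sandwich ELISA (mouse AR detection Ab, HRP anti-mouse, TMB). DC50 and Dmax derived from AR degradation.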

SMILES	DC50 [nM]
COc1cc(O[C@@H]2CC[C@@H](NC(=O)c3cnc(N4CCC(CN(C(C)C)[C@H]5C[C@H](Oc6ccc7c(c6)C(=O)N(C6CCC(=O)NC6=O)C7=O)C5)CC4)cn3)C2)ccc1C#N (stereo partly drawn) [Compound 10, N-((1R,3R)-3-(4-cyano-3-methoxyphenoxy)cyclopentyl)-5-(4-((((1r,3R)-3-((2-(2,6-dioxopiperidin-3-yl)-1,3-dioxoisoindolin-5-yl)oxy)cyclobutyl) (isopropyl)amino)methyl)piperidin-1-yl)pyrazine-2-carboxamide]	> 100
COc1cc(O[C@@H]2CC[C@H](NC(=O)c3cnc(N4CCC(CN(C(C)C)[C@H]5C[C@H](Oc6ccc7c(c6)C(=O)N(C6CCC(=O)NC6=O)C7=O)C5)CC4)cn3)C2)ccc1C#N (stereo partly drawn) [Compound 11, N-((1S,3R)-3-(4-cyano-3-methoxyphenoxy)cyclopentyl)-5-(4-((((1r,3S)-3-((2-(2,6-dioxopiperidin-3-yl)-1,3-dioxoisoindolin-5-yl)oxy)cyclobutyl) (isopropyl)amino)methyl)piperidin-1-yl)pyrazine-2-carboxamide]	> 100
N#Cc1ccc(O[C@H]2CC[C@H](NC(=O)c3cnc(N4CCC(CN(CC5COC5)[C@H]5C[C@H](Oc6ccc7c(c6)CN(C6CCC(=O)NC6=O)C7=O)C5)CC4)cn3)CC2)cc1Cl (stereo partly drawn) [Compound 13, N-((1r,4r)-4-(3-chloro-4-cyanophenoxy)cyclohexyl)-5-(4-((((1r,3r)-3-((2-(2,6-dioxopiperidin-3-yl)-1-oxoisoindolin-5-yl)oxy)cyclobutyl) (oxetan-3-ylmethyl)amino)methyl)piperidin-1-yl)pyrazine-2-carboxamide]	< 1
COc1cc(O[C@H]2C[C@H](N(CC3CCN(c4cnc(C(=O)N[C@H]5CC[C@H](Oc6ccc(C#N)c(Cl)c6)CC5)cn4)CC3)C(C)C)C2)cc2c1C(=O)N(C1CCC(=O)NC1=O)C2=O (stereo partly drawn) [Compound 14, N-((1r,4r)-4-(3-chloro-4-cyanophenoxy)cyclohexyl)-5-(4-((((1r,3r)-3-((2-(2,6-dioxopiperidin-3-yl)-7-methoxy-1,3-dioxoisoindolin-5-yl)oxy)cyclobutyl) (isopropyl)amino)methyl)piperidin-1-yl)pyrazine-2-carboxamide]	< 1
N#Cc1ccc(O[C@H]2CC[C@H](NC(=O)c3cnc(N4CCC(CN(C5COC5)[C@H]5C[C@H](Oc6ccc7c(c6)C(=O)N(C6CCC(=O)NC6=O)C7)C5)CC4)cn3)CC2)cc1Cl (stereo partly drawn) [Compound 15, N-((1r,4r)-4-(3-chloro-4-cyanophenoxy)cyclohexyl)-5-(4-((((1r,3r)-3-((2-(2,6-dioxopiperidin-3-yl)-3-oxoisoindolin-5-yl)oxy)cyclobutyl) (oxetan-3-yl)amino)methyl)piperidin-1-yl)pyrazine-2-carboxamide]	< 1
COCCN(CC1CCN(c2cnc(C(=O)N[C@H]3CC[C@H](Oc4ccc(C#N)c(Cl)c4)CC3)cn2)CC1)[C@H]1C[C@H](Oc2ccc3c(c2)CN(C2CCC(=O)NC2=O)C3=O)C1 (stereo partly drawn) [Compound 16, N-((1r,4r)-4-(3-chloro-4-cyanophenoxy)cyclohexyl)-5-(4-((((1r,3r)-3-((2-(2,6-dioxopiperidin-3-yl)-1-oxoisoindolin-5-yl)oxy)cyclobutyl)(2-methoxyethyl)amino)methyl)piperidin-1-yl)pyrazine-2-carboxamide]	< 1
COc1cc(O[C@H]2C[C@H](N(CC3CCN(c4cnc(C(=O)N[C@H]5CC[C@H](Oc6cc(C)c(C#N)c(C)c6)CC5)cn4)CC3)C(C)C)C2)cc2c1C(=O)N(C1CCC(=O)NC1=O)C2=O (stereo partly drawn) [Compound 17, N-((1r,4r)-4-(4-cyano-3,5-dimethylphenoxy)cyclohexyl)-5-(4-((((1r,3r)-3-((2-(2,6-dioxopiperidin-3-yl)-7-methoxy-1,3-dioxoisoindolin-5-yl)oxy)cyclobutyl) (isopropyl)amino)methyl)piperidin-1-yl)pyrazine-2-carboxamide]	< 1
COc1cc(O[C@H]2CC[C@H](NC(=O)c3cnc(N4CCC(CN(C(C)C)[C@H]5CC[C@H](Oc6ccc7c(c6)CN(C6CCC(=O)NC6=O)C7=O)CC5)CC4)cn3)CC2)ccc1C#N (stereo partly drawn) [Compound 19, N-((1r,4r)-4-(4-cyano-3-methoxyphenoxy)cyclohexyl)-5-(4-((((1r,4r)-4-((2-(2,6-dioxopiperidin-3-yl)-1-oxoisoindolin-5-yl)oxy)cyclohexyl) (isopropyl)amino)methyl)piperidin-1-yl)pyrazine-2-carboxamide]	< 1
COc1cc(O[C@H]2CC[C@H](NC(=O)c3cnc(N4CC(CN(C(C)C)[C@H]5C[C@H](Oc6ccc7c(c6)C(=O)N(C6CCC(=O)NC6=O)C7=O)C5)C4)cn3)CC2)ccc1C#N (stereo partly drawn) [Compound 20, N-((1r,4r)-4-(4-cyano-3-methoxyphenoxy)cyclohexyl)-5-(3-((((1r,3r)-3-((2-(2,6-dioxopiperidin-3-yl)-1,3-dioxoisoindolin-5-yl)oxy)cyclobutyl) (isopropyl)amino)methyl)azetidin-1-yl)pyrazine-2-carboxamide]	< 1
N#Cc1ccc(O[C@H]2CC[C@H](NC(=O)c3cnc(N4CCC(CN(C5COC5)[C@H]5C[C@H](Oc6ccc7c(c6)CN(C6CCC(=O)NC6=O)C7=O)C5)CC4)cn3)CC2)cc1Cl (stereo partly drawn) [Compound 21, N-((1r,4r)-4-(3-chloro-4-cyanophenoxy)cyclohexyl)-5-(4-((((1r,3r)-3-((2-(2,6-dioxopiperidin-3-yl)-1-oxoisoindolin-5-yl)oxy)cyclobutyl) (oxetan-3-yl)amino)methyl)piperidin-1-yl)pyrazine-2-carboxamide]	< 1
COc1cc(O[C@H]2CC[C@H](NC(=O)c3cnc(N4CC(CN(C(C)C)[C@H]5CC[C@H](Oc6ccc7c(c6)C(=O)N(C6CCC(=O)NC6=O)C7=O)CC5)C4)cn3)CC2)ccc1C#N (stereo partly drawn) [Compound 22, N-((1r,4r)-4-(4-cyano-3-methoxyphenoxy)cyclohexyl)-5-(3-((((1r,4r)-4-((2-(2,6-dioxopiperidin-3-yl)-1,3-dioxoisoindolin-5-yl)oxy)cyclohexyl) (isopropyl)amino)methyl)azetidin-1-yl)pyrazine-2-carboxamide]	< 1
COc1cc(O[C@H]2C[C@H](N(CC3CCN(c4cnc(C(=O)N[C@H]5CC[C@H](Oc6cc(C)c(C#N)c(C)c6)CC5)cn4)CC3)C(C)=O)C2)cc2c1C(=O)N(C1CCC(=O)NC1=O)C2=O (stereo partly drawn) [Compound 23, N-((1r,4r)-4-(4-cyano-3,5-dimethylphenoxy)cyclohexyl)-5-(4-((N-((1r,3r)-3-((2-(2,6-dioxopiperidin-3-yl)-7-methoxy-1,3-dioxoisoindolin-5-yl)oxy)cyclobutyl)acetamido)methyl)piperidin-1-yl)pyrazine-2-carboxamide]	< 1
COCCN(CC1CCN(c2cnc(C(=O)N[C@H]3CC[C@H](Oc4ccc(C#N)c(Cl)c4)CC3)cn2)CC1)[C@H]1C[C@H](Oc2ccc3c(c2)C(=O)N(C2CCC(=O)NC2=O)C3)C1 (stereo partly drawn) [Compound 24, N-((1r,4r)-4-(3-chloro-4-cyanophenoxy)cyclohexyl)-5-(4-((((1r,3r)-3-((2-(2,6-dioxopiperidin-3-yl)-3-oxoisoindolin-5-yl)oxy)cyclobutyl)(2-methoxyethyl)amino)methyl)piperidin-1-yl)pyrazine-2-carboxamide]	< 1
Cc1cc(O[C@H]2CC[C@H](NC(=O)c3cnc(N4CCC(CN(C(C)C)[C@H]5C[C@H](Oc6ccc7c(c6)C(=O)N(C6CCC(=O)NC6=O)C7=O)C5)CC4)cn3)CC2)cc(C)c1C#N (stereo partly drawn) [Compound 25, N-((1r,4r)-4-(4-cyano-3,5-dimethylphenoxy)cyclohexyl)-5-(4-((((1r,3r)-3-((2-(2,6-dioxopiperidin-3-yl)-1,3-dioxoisoindolin-5-yl)oxy)cyclobutyl) (isopropyl)amino)methyl)piperidin-1-yl)pyrazine-2-carboxamide]	< 1
CC(C)N(CC1CCN(c2ncc(C(=O)N[C@H]3C(C)(C)[C@H](Oc4ccc(C#N)c(Cl)c4)C3(C)C)cn2)CC1)[C@H]1CC[C@H](Oc2ccc3c(c2)C(=O)N(C2CCC(=O)NC2=O)C3=O)CC1 (stereo partly drawn) [Compound 26, N-((1r,3r)-3-(3-chloro-4-cyanophenoxy)-2,2,4,4-tetramethylcyclobutyl)-2-(4-((((1r,4r)-4-((2-(2,6-dioxopiperidin-3-yl)-1,3-dioxoisoindolin-5-yl)oxy)cyclohexyl) (isopropyl)amino)methyl)piperidin-1-yl)pyrimidine-5-carboxamide]	< 1
COc1cc(O[C@H]2CC[C@H](NC(=O)c3cnc(N4CC5(CC(CN(C(C)C)[C@H]6C[C@H](Oc7ccc8c(c7)CN(C7CCC(=O)NC7=O)C8=O)C6)C5)C4)cn3)CC2)ccc1C#N (stereo partly drawn) [Compound 27, N-((1r,4r)-4-(4-cyano-3-methoxyphenoxy)cyclohexyl)-5-(6-((((1r,3r)-3-((2-(2,6-dioxopiperidin-3-yl)-1-oxoisoindolin-5-yl)oxy)cyclobutyl) (isopropyl)amino)methyl)-2-azaspiro[3.3]heptan-2-yl)pyrazine-2-carboxamide]	< 1
CCN(CC1CCN(c2cnc(C(=O)N[C@H]3CC[C@H](Oc4ccc(C#N)c(Cl)c4)CC3)cn2)CC1)[C@H]1C[C@H](Oc2ccc3c(c2)C(=O)N(C2CCC(=O)NC2=O)C3=O)C1 (stereo partly drawn) [Compound 28, N-((1r,4r)-4-(3-chloro-4-cyanophenoxy)cyclohexyl)-5-(4-((((1r,3r)-3-((2-(2,6-dioxopiperidin-3-yl)-1,3-dioxoisoindolin-5-yl)oxy)cyclobutyl)(ethyl)amino)methyl)piperidin-1-yl)pyrazine-2-carboxamide]	< 1
COc1cc(O[C@H]2CC[C@H](NC(=O)c3cnc(N4CCC(CN(C(C)=O)[C@H]5C[C@H](Oc6ccc7c(c6)C(=O)N(C6CCC(=O)NC6=O)C7=O)C5)CC4)cn3)CC2)ccc1C#N (stereo partly drawn) [Compound 29, N-((1r,4r)-4-(4-cyano-3-methoxyphenoxy)cyclohexyl)-5-(4-((N-((1r,3r)-3-((2-(2,6-dioxopiperidin-3-yl)-1,3-dioxoisoindolin-5-yl)oxy)cyclobutyl)acetamido)methyl)piperidin-1-yl)pyrazine-2-carboxamide]	< 1
